Source: patent US10723741B1, “DNA polymerase IIIC inhibitors and use thereof” (Acurx Pharmaceuticals, LLC, priority 2018, dated 2020)
Converted amounts (≈) assume the structure as drawn. Where a name gives a salt, the structure may show the parent alone. Read-outs that look alike come from different tables or passages of the source.

Legend:
Format in all cases: cell-based
[1] = system: Staphylococcus aureus NRS384 (MRSA); test: Broth microdilution MIC, S. aureus NRS384 (MRSA); set-up: MIC NRS 384 (MRSA): unit not given here; conditions: broth microdilution, 37° C., 20 hours; for MIC: Staphylococcus aureus, read-out: MIC NRS 384 (MRSA)
Method in brief: (§1)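 Two-fold dilutions from 64 to 0.0625 μg/ml final, 1% DMSO, were inoculated at ~5.0×10^5 cfu/ml in the strain's test medium and kept 20 h at 37 °C in ambient atmosphere. Colonies were grown on MHA, with S. pneumoniae on blood agar under 5% CO2.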

[2] = system: Staphylococcus aureus ATCC 29213 (MSSA); test: Broth microdilution MIC, S. aureus ATCC 29213 (MSSA); conditions: read-out: MIC S. aureus ATCC 29213 (MSSA)
Method in brief: as §1

[3] = system: Enterococcus faecalis ATCC 29212; test: Broth microdilution MIC, E. faecalis ATCC 29212; conditions: read-out: MIC E. faecalis ATCC 29212
Method in brief: as §1

[4] = system: Enterococcus faecium ATCC 700221 (VRE); test: Broth microdilution MIC, E. faecium ATCC 700221 (VRE); set-up: MIC E. faecium ATCC 700221 (VRE): unit: ug/mL; conditions: broth microdilution, 37° C., 20 hours; for MIC: Enterococcus faecium, read-out: MIC E. faecium ATCC 700221 (VRE)
Method in brief: as §1

[5] = system: Streptococcus pneumoniae ATCC 49619; test: Broth microdilution MIC, S. pneumoniae ATCC 49619; conditions: read-out: MIC S. pneumoniae ATCC 49619
Method in brief: as §1

[6] = system: Bacillus subtilis ATCC 6633; test: Broth microdilution MIC, B. subtilis ATCC 6633; conditions: read-out: MIC B. subtilis ATCC 6633
Method in brief: as §1

[7] = system: Escherichia coli ATCC 25922; test: Broth microdilution MIC, E. coli ATCC 25922 (MHIIB w & w/o 4 mM EDTA); conditions: for MIC: Escherichia coli, read-out: MIC E. coli ATCC 25922; for MIC E. coli ATCC 25922 + 4 mM EDTA: with 4 mM EDTA
Method in brief: as §1

[8] = broth microdilution, 37° C., 20 hours
[9] = ATCC29212, broth microdilution, 37° C., 20 hours
[10] = ATCC49619, broth microdilution, 37° C., 20 hours
[11] = ATCC6633, broth microdilution, 37° C., 20 hours
[12] = ATCC25922, without EDTA, broth microdilution, 37° C., 20 hours

| SMILES | MIC NRS 384 (MRSA) [1] | MIC ([2]; 20 h) [µg/mL] | MIC ([3]; ATCC29212, 20 h) [µg/mL] | MIC E. faecium ATCC 700221 (VRE) [4] | MIC ([5]; ATCC49619, 20 h) [µg/mL] | MIC ([6]; ATCC6633, 20 h) [µg/mL] | MIC ([7]; ATCC25922, 20 h) [µg/mL] | MIC E. coli ATCC 25922 + 4 mM EDTA [7, 8] | MIC [1] [µg/mL] | MIC [2, 8] [µg/mL] | MIC [3, 9] [µg/mL] | MIC [4] [µg/mL] | MIC [5, 10] [µg/mL] | MIC [6, 11] [µg/mL] | MIC [7, 12] [µg/mL] |
| --- | --- | --- | --- | --- | --- | --- | --- | --- | --- | --- | --- | --- | --- | --- | --- |
| O=c1[nH]c(NCc2ccc(Cl)c(Cl)c2)nc2cnn(CC3CCCN3c3ccccn3)c12 (stereo not shown) [Compound 182, 5-((3,4-dichlorobenzyl)amino)-1-((1-(pyridin-2-yl)pyrrolidin-2-yl)methyl)-1H-pyrazolo[4,3-d]pyrimidin-7(6H)-one dihydrochloride] | 4/8 | 4 | 8 | 4/2 | 8 | 2 | > 64 | >64 µg/mL |  |  |  |  |  |  |  |
| COCC(CN(C)C)OCCn1ncc2nc(NCc3ccc(Cl)c(Cl)c3)[nH]c(=O)c21.Cl (stereo not shown) [Compound 183, 5-((3,4-dichlorobenzyl)amino)-1-(2-((1-(dimethylamino)-3-methoxypropan-2-yl)oxy)ethyl)-1H-pyrazolo[4,3-d]pyrimidin-7(6H)-one hydrochloride] |  |  |  |  |  |  |  | >64 µg/mL | 64 | 64 | 32 | 32 | 8 | 8 | > 64 |
| CNCC(COC)OCCn1ncc2nc(NCc3ccc(Cl)c(Cl)c3)[nH]c(=O)c21.Cl (stereo not shown) [Compound 184, 5-((3,4-dichlorobenzyl)amino)-1-(2-((1-methoxy-3-(methylamino)propan-2-yl)oxy)ethyl)-1H-pyrazolo[4,3-d]pyrimidin-7(6H)-one] |  |  |  |  |  |  |  | 64 µg/mL | 64 | 64 | 64 | 64 | 8 | 8 | > 64 |
| COCC(OCCn1ncc2nc(NCc3ccc(Cl)c(Cl)c3)[nH]c(=O)c21)c1cccnc1.Cl (stereo not shown) [Compound 185, 5-((3,4-Dichlorobenzyl)amino)-1-(2-(2-methoxy-1-(pyridin-3-yl)ethoxy)ethyl)-1H-pyrazolo[4,3-d]pyrimidin-7(6H)-one hydrochloride] |  |  |  |  |  |  |  | >64. ug/ml | 16 | 16 | 16 | 16 | 8 | 4 | > 64 |
| COC(=O)COCCOCCn1ncc2nc(NCc3ccc(Cl)c(Cl)c3)[nH]c(=O)c21 [Compound 186, methyl 2-(2-(2-(5-((3,4-dichlorobenzyl)amino)-7-oxo-6,7-dihydro-1H-pyrazolo[4,3-d]pyrimidin-1-yl)ethoxy)ethoxy)acetate] |  |  |  |  |  |  |  | >64 µg/mL | 8 (≈ 17 µM) | 16 (≈ 34 µM) | 16 (≈ 34 µM) | 4 (≈ 8.5 µM) | > 64 | 4 (≈ 8.5 µM) | > 64 |
| O=C(O)COCCOCCn1ncc2nc(NCc3ccc(Cl)c(Cl)c3)[nH]c(=O)c21 [Compound 187, 2-(2-(2-(5-((3,4-dichlorobenzyl)amino)-7-oxo-6,7-dihydro-1H-pyrazolo[4,3-d]pyrimidin-1-yl)ethoxy)ethoxy)acetic acid] |  |  |  |  |  |  |  | >64 µg/mL | > 64 | > 64 | 64 (≈ 140 µM) | 64 (≈ 140 µM) | > 64 | 64 (≈ 140 µM) | > 64 |
| O=c1[nH]c(NCc2ccc(Cl)c(Cl)c2)nc2cnn(CCOC3CCS(=O)(=O)CC3)c12 [Compound 188, 5-((3,4-dichlorobenzyl)amino)-1-(2-((1,1-dioxidotetrahydro-2H-thiopyran-4-yl)oxy)ethyl)-1H-pyrazolo[4,3-d]pyrimidin-7(6H)-one] |  |  |  |  |  |  |  | >64 µg/mL | 16 (≈ 32.9 µM) | 16 (≈ 32.9 µM) | 8 (≈ 16.4 µM) | 4 (≈ 8.22 µM) | 8 (≈ 16.4 µM) | 4 (≈ 8.22 µM) | > 64 |
| O=c1[nH]c(NCc2ccc(Cl)c(Cl)c2)nc2cnn(Cc3ccc(O)c(O)c3)c12 [Compound 189, 5-((3,4-dichlorobenzyl)amino)-1-(3,4-dihydroxybenzyl)-1H-pyrazolo[4,3-d]pyrimidin-7(6H)-one] |  |  |  |  |  |  |  | 64 µg/mL | 16 (≈ 37 µM) | 16 (≈ 37 µM) | 16 (≈ 37 µM) | 8 (≈ 18.5 µM) | 64 (≈ 148 µM) | 16 (≈ 37 µM) | > 64 |
| COc1ccc(Cn2ncc3nc(NCc4ccc(Cl)c(Cl)c4)[nH]c(=O)c32)cc1OC [Compound 190, 5-((3,4-Dichlorobenzyl)amino)-1-(3,4-dimethoxybenzyl)-1H-pyrazolo[4,3-d]pyrimidin-7(6H)-one] |  |  |  |  |  |  |  | >64 µg/mL | > 64 | > 64 | > 64 | > 64 | > 64 | > 64 | > 64 |
| O=c1[nH]c(NCc2ccc(Cl)c(Cl)c2)nc2cnn(CCOC/C=N/O)c12 [Compound 191, (E)-2-(2-(5-((3,4-dichlorobenzyl)amino)-7-oxo-6,7-dihydro-1H-pyrazolo[4,3-d]pyrimidin-1-yl)ethoxy)acetaldehyde oxime] |  |  |  |  |  |  |  | >64 µg/mL | 8 (≈ 19.5 µM) | 4 (≈ 9.73 µM) | 8 (≈ 19.5 µM) | 2 (≈ 4.86 µM) | 4 (≈ 9.73 µM) | 2 (≈ 4.86 µM) | > 64 |
| COC/C=C/Cn1ncc2nc(NCc3ccc(Cl)c(Cl)c3)[nH]c(=O)c21 [Compound 192, (E)-5-((3,4-dichlorobenzyl)amino)-1-(4-methoxybut-2-en-1-yl)-1H-pyrazolo[4,3-d]pyrimidin-7(6H)-one] |  |  |  |  |  |  |  | >64 µg/mL | 2 (≈ 5.07 µM) | 2 (≈ 5.07 µM) | 4 (≈ 10.1 µM) | 2 (≈ 5.07 µM) | 4 (≈ 10.1 µM) | 1 (≈ 2.54 µM) | > 64 |
| COCCOC/C=C/Cn1ncc2nc(NCc3ccc(Cl)c(Cl)c3)[nH]c(=O)c21 [Compound 193, (E)-5-((3,4-dichlorobenzyl)amino)-1-(4-(2-methoxyethoxy)but-2-en-1-yl)-1H-pyrazolo[4,3-d]pyrimidin-7(6H)-one] |  |  |  |  |  |  |  | >64 µg/mL | 4 (≈ 9.13 µM) | 4 (≈ 9.13 µM) | 8 (≈ 18.3 µM) | 4 (≈ 9.13 µM) | 4 (≈ 9.13 µM) | 1 (≈ 2.28 µM) | > 64 |
| CCOC(=O)C1(Cn2ncc3nc(NCc4ccc(Cl)c(Cl)c4)[nH]c(=O)c32)CCNCC1.Cl [Compound 194, ethyl 4-((5-((3,4-dichlorobenzyl)amino)-7-oxo-6,7-dihydro-1H-pyrazolo[4,3-d]pyrimidin-1-yl)methyl)piperidine-4-carboxylate hydrochloride] |  |  |  |  |  |  |  | 64 µg/mL | > 64 | 64 | 32 | 32 | 16 | 8 | > 64 |
| Cl.O=c1[nH]c(NCc2ccc(Cl)c(Cl)c2)nc2cnn(CC3(CO)CCNCC3)c12 [Compound 195, 5-((3,4-dichlorobenzyl)amino)-1-((4-(hydroxymethyl)piperidin-4-yl)methyl)-1H-pyrazolo[4,3-d]pyrimidin-7(6H)-one hydrochloride] |  |  |  |  |  |  |  | >64 µg/mL | > 64 | > 64 | 64 | 64 | 16 | 8 | > 64 |
